Assay results reported in patent publication US20240109900A1, “AZABICYCLIC SHP2 INHIBITORS” (IRBM S.P.A., priority 2021, published 2024).
Where two headings read alike, the source gives them in different places.

Assays:
[1] = target: SHP-2 enzyme (Met1-Leu525) (Homo sapiens (Human), UniProt Q06124); experiment: SHP2 inhibition enzymatic assay; assay type: biochemical; settings: 0.5 nM SHP-2 activated by 500 nM IRS1 peptide, 75 μM DiFMUP substrate; read-out: SHP2wt-IC50
How it was run: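 Compounds were preincubated 30 min with 0.5 nM SHP-2 (Met1-Leu525) plus 500 nM IRS1 activating peptide (pH 7.2 HEPES, 5 mM DTT), then 75 μM DiFMUP substrate reacted 30 min at room temperature. After bpV quench, DiFMUP fluorescence gave % inhibition; four-parameter logistic fit yielded IC50.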

[2] = system: ERK phosphorylation in KYSE-520 cells; experiment: Phospho-ERK cellular assay; assay type: cell-based; settings: KYSE-520 cells, 2 h at 37° C., phospho-ERK1/2 (Thr202/Tyr204) TR-FRET, read-out: PERK IC50
How it was run: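 TR-FRET read-out of ERK1/2 Thr202/Tyr204 phosphorylation was taken after overnight antibody incubation at room temperature. Before that, KYSE-520 cells were treated 2 h at 37 °C with compound dilutions and lysed 30 min. Percent inhibition relative to vehicle and cell-free wells was fitted four-parametrically to give IC50.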

Chain of SHP-2 enzyme (Met1-Leu525) (Q06124 1-525): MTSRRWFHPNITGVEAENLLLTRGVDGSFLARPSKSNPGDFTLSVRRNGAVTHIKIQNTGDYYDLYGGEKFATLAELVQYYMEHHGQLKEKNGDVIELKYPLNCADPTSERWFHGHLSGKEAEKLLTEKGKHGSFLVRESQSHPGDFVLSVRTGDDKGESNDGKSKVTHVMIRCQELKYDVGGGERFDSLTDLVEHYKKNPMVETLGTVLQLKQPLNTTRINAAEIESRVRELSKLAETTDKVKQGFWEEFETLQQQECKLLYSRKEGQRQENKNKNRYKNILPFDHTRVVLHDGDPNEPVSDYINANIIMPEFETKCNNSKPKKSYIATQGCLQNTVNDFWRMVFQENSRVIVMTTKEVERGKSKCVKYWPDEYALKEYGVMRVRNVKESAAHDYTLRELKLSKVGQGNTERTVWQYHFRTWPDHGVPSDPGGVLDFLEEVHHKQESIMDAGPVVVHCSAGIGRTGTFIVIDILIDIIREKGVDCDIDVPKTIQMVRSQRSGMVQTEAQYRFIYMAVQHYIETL

| SMILES | IC50 [1] | IC50 ([2]; Homo sapiens, KYSE-520, 2 h) | IC50 [2] |
| --- | --- | --- | --- |
| Cn1cc2c(Cl)c(Sc3ccc4nc(N5CC[C@@H]6[C@H](C5)[C@@]6(CN)c5ccccc5F)cnc4n3)ccc2n1 [Example 400, ((1S,6R,7R)-3-(6-((4-chloro-2-methyl-2H-indazol-5-yl)thio)pyrido[2,3-b]pyrazin-2-yl)-7-(2-fluorophenyl)-3-azabicyclo[4.1.0]heptan-7-yl)methanamine] | < 500 nM | < 1000 nM | – |
| NC[C@]1(c2ccccc2F)[C@@H]2CCN(c3cnc(Sc4ccnc(N)c4Cl)cn3)C[C@@H]21 [Example 401, 4-((5-((1S,6R,7R)-7-(aminomethyl)-7-(2-fluorophenyl)-3-azabicyclo[4.1.0]heptan-3-yl)pyrazin-2-yl)thio)-3-chloropyridin-2-amine] | < 500 nM | < 1000 nM | – |
| NC[C@]1(c2cc(F)ccc2F)[C@@H]2CCN(c3cnc(Sc4ccnc(-n5cccn5)c4Cl)cn3)C[C@@H]21 [Example 402, ((1S,6R,7R)-3-(5-((3-chloro-2-(1H-pyrazol-1-yl)pyridin-4-yl)thio)pyrazin-2-yl)-7-(2,5-difluorophenyl)-3-azabicyclo[4.1.0]heptan-7-yl)methanamine] | < 500 nM | < 1000 nM | – |
| NCC1(c2ccccc2F)[C@@H]2CCN(c3cnc(Sc4ccnc(-n5cccn5)c4Cl)cn3)CC[C@@H]21 (stereo partly drawn) [Example 403, ((1R,7S)-4-(5-((3-chloro-2-(1H-pyrazol-1-yl)pyridin-4-yl)thio)pyrazin-2-yl)-8-(2-fluorophenyl)-4-azabicyclo[5.1.0]octan-8-yl)methanamine] | < 500 nM | > 5000 nM | – |
| Cn1cc2c(Cl)c(-c3n[nH]c4nc(N5CC[C@@H]6[C@H](CC5)C6(CN)c5ccccc5F)cnc34)ccc2n1 (stereo partly drawn) [Example 404, ((1R,7S)-4-(3-(4-chloro-2-methyl-2H-indazol-5-yl)-1H-pyrazolo[3,4-b]pyrazin-6-yl)-8-(2-fluorophenyl)-4-azabicyclo[5.1.0]octan-8-yl)methanamine] | < 500 nM | < 1000 nM | – |
| NC[C@]1(c2ccccc2F)[C@@H]2CCN(c3cnc4c(-c5ccc6[nH]ccc6c5Cl)n[nH]c4n3)C[C@@H]21 [Example 405, ((1S,6R,7R)-3-(3-(4-chloro-1H-indol-5-yl)-1H-pyrazolo[3,4-b]pyrazin-6-yl)-7-(2-fluorophenyl)-3-azabicyclo[4.1.0]heptan-7-yl)methanamine] | < 500 nM | < 1000 nM | – |
| NC[C@]1(c2ccccc2F)[C@@H]2CCN(c3cnc4nc(N5CCCc6ncccc65)ccc4n3)C[C@@H]21 [Example 406, ((1S,6R,7R)-3-(6-(3,4-dihydro-1,5-naphthyridin-1(2H)-yl)pyrido[2,3-b]pyrazin-2-yl)-7-(2-fluorophenyl)-3-azabicyclo[4.1.0]heptan-7-yl)methanamine] | < 500 nM | < 1000 nM | – |
| NC[C@]1(c2ccccc2F)[C@@H]2CCN(c3cnc4nc(Sc5ccncc5)ccc4n3)C[C@@H]21 [Example 407, ((1S,6R,7R)-7-(2-fluorophenyl)-3-(6-(pyridin-4-ylthio)pyrido[2,3-b]pyrazin-2-yl)-3-azabicyclo[4.1.0]heptan-7-yl)methanamine] | < 500 nM | < 1000 nM | – |
| NC[C@]1(c2ccccc2F)[C@@H]2CCN(c3cc(=O)n4cc(-c5cccc(Cl)c5Cl)ccc4n3)C[C@@H]21 [Example 408, 2-((1S,6R,7R)-7-(aminomethyl)-7-(2-fluorophenyl)-3-azabicyclo[4.1.0]heptan-3-yl)-7-(2,3-dichlorophenyl)-4H-pyrido[1,2-a]pyrimidin-4-one] | < 500 nM | > 5000 nM | – |
| NC[C@]1(c2ccccc2F)[C@@H]2CCN(c3cnc4nc(Oc5ccc(F)cc5)ccc4n3)C[C@@H]21 [Example 409, ((1S,6R,7R)-3-(6-(4-fluorophenoxy)pyrido[2,3-b]pyrazin-2-yl)-7-(2-fluorophenyl)-3-azabicyclo[4.1.0]heptan-7-yl)methanamine] | < 500 nM | < 1000 nM | – |
| NC[C@]1(c2ccccc2F)[C@@H]2CCN(c3cc(=O)n4cc(Sc5ccnc(N)c5Cl)ccc4n3)C[C@@H]21 [Example 410, 7-((2-amino-3-chloropyridin-4-yl)thio)-2-((1S,6R,7R)-7-(aminomethyl)-7-(2-fluorophenyl)-3-azabicyclo[4.1.0]heptan-3-yl)-4H-pyrido[1,2-a]pyrimidin-4-one] | 500 to 3000 nM | > 5000 nM | – |
| Cc1nc(N2CC[C@@H]3[C@H](C2)[C@@]3(CN)c2cc(F)ccc2F)cc(=O)n1-c1cccc(Cl)c1Cl [Example 411, 6-((1S,6R,7R)-7-(aminomethyl)-7-(2,5-difluorophenyl)-3-azabicyclo[4.1.0]heptan-3-yl)-3-(2,3-dichlorophenyl)-2-methylpyrimidin-4(3H)-one] | > 3000 nM | – | > 5000 nM |
| Cc1nc(N2CC[C@@H]3[C@H](C2)[C@@]3(CN)c2cc(F)ccc2F)cc(=O)n1-c1cccc(Cl)c1Cl [Example 412, 6-((1S,6R,7R)-7-(aminomethyl)-7-(2,5-difluorophenyl)-3-azabicyclo[4.1.0]heptan-3-yl)-3-(2,3-dichlorophenyl)-2-methylpyrimidin-4(3H)-one] | < 500 nM | – | < 1000 nM |
| NC[C@]1(c2ccccc2F)[C@@H]2CCN(c3cnc4c(-c5ccc6c(cnn6C6CC6)c5Cl)n[nH]c4n3)C[C@@H]21 [Example 413] | < 500 nM | – | < 1000 nM |
| NC[C@]1(c2ccccc2F)[C@@H]2CCN(c3cnc4c(-c5ccc6nn(C7CC7)cc6c5Cl)n[nH]c4n3)C[C@@H]21 [Example 420] | < 500 nM | – | < 1000 nM |

Second part, the molecule after the results:

| IC50 [1] | IC50 ([2]; Homo sapiens, KYSE-520, 2 h) | IC50 [2] | SMILES |
| --- | --- | --- | --- |
| < 500 nM | < 1000 nM | – | NC[C@]1(c2cc(F)ccc2F)[C@@H]2CCN(c3cnc(Sc4ccnc(N)c4Cl)c(N)n3)C[C@@H]21 [Example 414, 3-((2-amino-3-chloropyridin-4-yl)thio)-6-((1S,6R,7R)-7-(aminomethyl)-7-(2,5-difluorophenyl)-3-azabicyclo[4.1.0]heptan-3-yl)pyrazin-2-amine] |
| < 500 nM | < 1000 nM | – | Cn1cc2cc(-c3ccc4nc(N5CC[C@@H]6[C@H](C5)[C@@]6(CN)c5ccccc5F)cnc4n3)ccc2n1 [Example 415, ((1S,6R,7R)-7-(2-fluorophenyl)-3-(6-(2-methyl-2H-indazol-5-yl)pyrido[2,3-b]pyrazin-2-yl)-3-azabicyclo[4.1.0]heptan-7-yl)methanamine] |
| < 500 nM | > 5000 nM | – | NC[C@]1(c2ccccc2F)[C@@H]2CCN(c3nccn4c(-c5cccc(Cl)c5Cl)ncc34)C[C@@H]21 [Example 416, ((1S,6R,7R)-3-(3-(2,3-dichlorophenyl)imidazo[1,5-a]pyrazin-8-yl)-7-(2-fluorophenyl)-3-azabicyclo[4.1.0]heptan-7-yl)methanamine] |
| < 500 nM | – | < 1000 nM | NC[C@]1(c2ccccc2F)[C@@H]2CCN(c3cnc4c(-c5ccc6c(c5)ncn6C(F)F)n[nH]c4n3)C[C@@H]21 [Example 418] |
| < 500 nM | < 1000 nM | – | Cc1nccc(Sc2ccc3nc(N4CC[C@@H]5[C@H](C4)[C@@]5(CN)c4ccccc4F)cnc3n2)c1F [Example 419, ((1S,6R,7R)-3-(6-((3-fluoro-2-methylpyridin-4-yl)thio)pyrido[2,3-b]pyrazin-2-yl)-7-(2-fluorophenyl)-3-azabicyclo[4.1.0]heptan-7-yl)methanamine] |
| < 500 nM | < 1000 nM | – | NC[C@]1(c2ccccc2F)[C@@H]2CCN(c3cnc(Sc4ccc(C(N)=O)cc4Cl)cn3)C[C@@H]21 [Example 421, 4-((5-((1S,6R,7R)-7-(aminomethyl)-7-(2-fluorophenyl)-3-azabicyclo[4.1.0]heptan-3-yl)pyrazin-2-yl)thio)-3-chlorobenzamide] |
| < 500 nM | < 1000 nM | – | NC[C@]1(c2ccccc2F)[C@@H]2CCN(c3cnc(Sc4cccc5ncccc45)cn3)C[C@@H]21 [Example 422, ((1S,6R,7R)-7-(2-fluorophenyl)-3-(5-(quinolin-5-ylthio)pyrazin-2-yl)-3-azabicyclo[4.1.0]heptan-7-yl)methanamine] |
| < 500 nM | > 5000 nM | – | Cc1nccc(Sc2cnc(N3CC[C@@H]4[C@H](C3)[C@@]4(CN)c3ccccc3F)cn2)c1F [Example 423, ((1S,6R,7R)-3-(5-((3-fluoro-2-methylpyridin-4-yl)thio)pyrazin-2-yl)-7-(2-fluorophenyl)-3-azabicyclo[4.1.0]heptan-7-yl)methanamine] |
| < 500 nM | < 1000 nM | – | Cc1nccc(Sc2cnc(N3CC[C@@H]4[C@H](C3)[C@@]4(CN)c3cc(F)ccc3F)cn2)c1F [Example 424, ((1S,6R,7R)-7-(2,5-difluorophenyl)-3-(5-((3-fluoro-2-methylpyridin-4-yl)thio)pyrazin-2-yl)-3-azabicyclo[4.1.0]heptan-7-yl)methanamine] |
| < 500 nM | < 1000 nM | – | Cc1c(-c2ccc3nc(N4CC[C@@H]5[C@H](C4)[C@@]5(CN)c4ccccc4F)cnc3n2)ccc2nn(C)cc12 [Example 425, ((1S,6R,7R)-3-(6-(2,4-dimethyl-2H-indazol-5-yl)pyrido[2,3-b]pyrazin-2-yl)-7-(2-fluorophenyl)-3-azabicyclo[4.1.0]heptan-7-yl)methanamine] |
